Results reported in patent US4093722A, “Sulfonylimidazolidone substituted cephalosporins, antibacterial compositions containing them, and methods of combatting bacteria employing them” (Bayer Aktiengesellschaft, priority 1974, dated 1978).

How the values were obtained:
Haemophilis influenzae = assay: In vitro turbidity test (Muller-Hinton broth); assay type: cell-based; details: 100 μg/ml, 24 hours incubation
Klebsiella = assay: Animal experiments with white mice (intraperitoneal infection); assay type: in vivo, white mice of strain CF1 infected with Klebsiella; details: sc, white mice CF1, subcutaneous, 1 administration 30 minutes after infection (1 × dose), 50% survive after 24 hours
Description: (§1) The white mice of strain CF1 were infected intraperitoneally with the species of bacteria indicated.
(§2) Determination of the ED50 after 24 hours
(§3) Therapy: 1 administration 30 minutes after infection.
(§4) The ED50 is the dose at which 50% of the infected animals still survive after 24 hours.

Escherichia coli C 165 = assay: as above; assay type: in vivo, white mice of strain CF1 infected with Escherichia coli; details: C165, sc, white mice CF1, subcutaneous, 1 administration 30 minutes after infection (1 × dose), 50% survive after 24 hours
Description: as §1, §2, §3, §4

[1] = test system: Neisseria catarrhalis sp.; assay: In vitro turbidity test (Muller-Hinton broth); assay type: cell-based; details: 100 μg/ml, 24 hours incubation
Serratia marcescens = assay: In vitro turbidity test (Muller-Hinton broth); assay type: cell-based; details: 100 μg/ml, 24 hours incubation
Salmonella sp. = assay: In vitro turbidity test (Muller-Hinton broth); assay type: cell-based; details: 100 μg/ml, 24 hours incubation
[2] = test system: Pasteurella pseudotuberculosis; assay type: cell-based; details: 100 μg/ml, 24 hours incubation
Shigella sp. = assay: In vitro turbidity test (Muller-Hinton broth); assay type: cell-based; details: 100 μg/ml, 24 hours incubation
Lactobacillus sp. = assay: In vitro turbidity test (Muller-Hinton broth); assay type: cell-based; details: 100 μg/ml, 24 hours incubation
Klebsiella pneumoniae = assay: In vitro turbidity test (Muller-Hinton broth); assay type: cell-based; details: 100 μg/ml, 24 hours incubation
Enterococcus sp. = assay: In vitro turbidity test (Muller-Hinton broth); assay type: cell-based; details: 100 μg/ml, 24 hours incubation
[3] = test system: Corynebacterium pyogenes M.; assay: In vitro turbidity test (Muller-Hinton broth); assay type: cell-based; details: 100 μg/ml, 24 hours incubation
[4] = test system: Streptococcus pyogenes W.; assay: In vitro turbidity test (Muller-Hinton broth); assay type: cell-based; details: 100 μg/ml, 24 hours incubation
Brucella sp. = assay type: cell-based; details: 100 μg/ml, 24 hours incubation
[5] = test system: Staphylococcus aureus 133; assay: In vitro turbidity test (Muller-Hinton broth); assay type: cell-based; details: 100 μg/ml, 24 hours incubation
[6] = test system: Staphylococcus aureus 133; assay: Animal experiments with white mice (intraperitoneal infection); assay type: in vivo, white mice of strain CF1 infected with Staphylococcus aureus; details: Staphylococcus aureus, 133, sc; white mice CF1, subcutaneous, 1 administration 30 minutes after infection (1 × dose); 50% survive after 24 hours
Description: as §1, §2, §3, §4

[7] = Antibiotic activity of electropherogram spot (germ not stated); assay type: cell-based
[8] = test system: Diplococcus pneumoniae sp.; assay: In vitro turbidity test (Muller-Hinton broth); assay type: cell-based; details: 100 μg/ml, 24 hours incubation
[9] = test system: Proteus, indole negative and indole positive sp.; assay: In vitro turbidity test (Muller-Hinton broth); assay type: cell-based; details: 100 μg/ml, 24 hours incubation
Providencia = assay: In vitro turbidity test (Muller-Hinton broth); assay type: cell-based; details: 100 μg/ml, 24 hours incubation
[10] = test system: Enterobacter aerogenes sp.; assay: In vitro turbidity test (Muller-Hinton broth); assay type: cell-based; details: 100 μg/ml, 24 hours incubation
Escherichia coli BE = assay: In vitro turbidity test (Muller-Hinton broth); assay type: cell-based; details: 100 μg/ml, 24 hours incubation
[11] = test system: Bordetella bronchiseptica; assay: In vitro turbidity test (Muller-Hinton broth); assay type: cell-based; details: 100 μg/ml, 24 hours incubation
[12] = test system: Corynebacterium diphteriae gravis; assay: In vitro turbidity test (Muller-Hinton broth); assay type: cell-based; details: 100 μg/ml, 24 hours incubation
Pseudomonas aeruginosa = assay: Antibiotic activity of electropherogram spot; assay type: cell-based
B. subtilis = assay: Antibiotic activity of electropherogram spot; assay type: cell-based
Escherichia coli = assay: Antibiotic activity of electropherogram spot; assay type: cell-based
[13] = test system: bacteria from the genus Pseudomonades; details: known art; cited from earlier work

SMILES | freedom from turbidity (Haemophilis influenzae) | freedom from turbidity [1] | freedom from turbidity (Serratia marcescens) | freedom from turbidity (Salmonella sp.) | freedom from turbidity [2] | freedom from turbidity (Shigella sp.) | freedom from turbidity (Lactobacillus sp.) | freedom from turbidity (Klebsiella pneumoniae) | freedom from turbidity (Enterococcus sp.) | freedom from turbidity [3] | freedom from turbidity [4] | freedom from turbidity (Brucella sp.) | freedom from turbidity [5] | freedom from turbidity [8] | freedom from turbidity [9] | freedom from turbidity (Providencia) | freedom from turbidity [10] | freedom from turbidity (Escherichia coli BE) | freedom from turbidity [11] | freedom from turbidity [12] | further results
CC(=O)OCC1=C(C(=O)[O-])N2C(=O)C(NC(=O)[C@H](NC(=O)N3CCN(S(C)(=O)=O)C3=O)c3ccccc3)[C@H]2SC1.[Na+] (stereo partly drawn) [Example 6, Sodium 7-{D-α-[(2-oxo-3-mesyl-imidazolidin-1-yl)-carbonylamino]-phenylacetamido}-3-acetoxymethyl-ceph-3-em-4-carboxylate] | free from turbidity | free from turbidity | free from turbidity | free from turbidity | free from turbidity | free from turbidity | free from turbidity | free from turbidity | free from turbidity | free from turbidity | free from turbidity | free from turbidity | free from turbidity | free from turbidity | free from turbidity | free from turbidity | free from turbidity | free from turbidity | free from turbidity | free from turbidity | ED50 (Klebsiella): 150 mg/kg; ED50 (Escherichia coli C 165): 200 mg/kg; ED50 [6]: 10 mg/kg; antibiotic activity of the electropherogram spot [7]: only shows one spot with antibiotic activity
CC(=O)OCC1=C(C(=O)[O-])N2C(=O)C(NC(=O)[C@H](NC(=O)N3CCN(S(=O)(=O)c4ccccc4)C3=O)c3ccccc3)[C@H]2SC1.[Na+] (stereo partly drawn) [Example 7, Sodium 7-{D-α-[(2-oxo-3-phenylsulphonyl-imidazolidin-1-yl)-carbonylamino]-phenylacetamido}-3-acetoxymethyl-ceph-3-em-4-carboxylate] | free from turbidity | free from turbidity | free from turbidity | free from turbidity | free from turbidity | free from turbidity | free from turbidity | free from turbidity | free from turbidity | free from turbidity | free from turbidity | free from turbidity | free from turbidity | free from turbidity | free from turbidity | free from turbidity | free from turbidity | free from turbidity | free from turbidity | free from turbidity | 
CC(=O)OCC1=C(C(=O)[O-])N2C(=O)C(NC(=O)[C@H](NC(=O)N3CCNC3=O)c3ccccc3)[C@H]2SC1.[Na+] (stereo partly drawn) [Example 1, sodium 7-{D-α-[(2-oxo-imidazolidin-1-yl)-carbonylamino]-phenylacetamido}-3-acetoxymethyl-ceph-3-em-4-carboxylate] |  |  |  |  |  |  |  |  |  |  |  |  |  |  |  |  |  |  |  |  | antibiotic activity of the electropherogram spot (Pseudomonas aeruginosa): only one spot with antibiotic activity; antibiotic activity of the electropherogram spot (B. subtilis): only one spot with antibiotic activity; antibiotic activity of the electropherogram spot (Escherichia coli): only one spot with antibiotic activity
CC1=C(C(=O)O)N2C(=O)C(NC(=O)[C@H](NC(=O)N3CCNC3=O)c3ccccc3)[C@H]2SC1 (stereo partly drawn) [Example 2, 7-{D-α-[(2-Oxo-imidazolidin-1-yl)-carbonylamino]-phenylacetamido}-3-methyl-ceph-3-em-4-carboxylic acid] |  |  |  |  |  |  |  |  |  |  |  |  |  |  |  |  |  |  |  |  | antibiotic activity of the electropherogram spot [7]: only one spot with antibiotic activity
CC(=O)OCC1=C(C(=O)[O-])N2C(=O)C(NC(=O)[C@H](NC(=O)N3CCN(C)C3=O)c3ccccc3)[C@H]2SC1.[Na+] (stereo partly drawn) [Example 3, sodium 7-{D-α-[(3-methyl-2-oxo-imidazolidin-1-yl)-carbonylamino]-phenylacetamido}-3-acetoxymethyl-ceph-3-em-4-carboxylate] | free from turbidity | free from turbidity | free from turbidity | free from turbidity | free from turbidity | free from turbidity | free from turbidity | free from turbidity | free from turbidity | free from turbidity | free from turbidity | free from turbidity | free from turbidity | free from turbidity | free from turbidity | free from turbidity | free from turbidity | free from turbidity | free from turbidity | free from turbidity | 
CC(=O)OCC1=C(C(=O)O)N2C(=O)C(NC(=O)C(N)c3ccccc3)[C@H]2SC1 (stereo partly drawn) [cephaloglycine, 7-(α-amino-phenylacetamido)-3-acetoxymethyl-ceph-3-em-4-carboxylic acid] |  |  |  |  |  |  |  |  |  |  |  |  |  |  |  |  |  |  |  |  | activity against infections caused by Pseudomonades [13]: not active
